The source made the active and inactive calls. No cut-off for these calls is given here.
Legend:
[1] = tested on: PC-12; assay: Neuritogenic activity in rat PC12 cells assessed as induction of neural differentiation at 5 to 10 uM incubated for 96 hrs by microscopic analysis; assay type: functional, cell-based; conditions: dose 5-10 µM
[2] = tested on: PC-12; assay: Induction of neural differentiation in rat PC12 cells assessed as increase in Tuj-1 expression at 10 uM incubated for 96 hrs by immunofluorescence staining based assay; assay type: functional, cell-based
[3] = Drug metabolism in rat PC12 cells assessed as formation of 3-amino-5,6,7,8-tetrahydrothieno[2,3-b]quinoline-2-carbonitrile metabolite by fluorescence based assay; assay type: ADME, cell-based; conditions: pc-12
[4] = Drug uptake in rat PC12 cells by HPLC analysis; assay type: ADME, cell-based; conditions: pc-12
[5] = Drug uptake in rat PC12 cells by fluorescence based assay; assay type: ADME, cell-based; conditions: pc-12
[6] = Drug metabolism in rat PC12 cells assessed as formation of 3-amino-5,6,7,8-tetrahydrothieno[2,3-b]quinoline-2-carbonitrile metabolite by HPLC analysis; assay type: ADME, cell-based; conditions: pc-12
[7] = tested on: PC-12; assay: Neuritogenic activity in rat PC12 cells assessed as induction of neural differentiation incubated for 96 hrs by microscopic analysis; assay type: functional, cell-based; conditions: dose > 5.0 µM
[8] = Fluorescent property of compound in methanol assessed as wavelength of excitation; assay type: physicochemical
[9] = Fluorescent property of compound in acetonitrile assessed as wavelength of emission; assay type: physicochemical
[10] = Fluorescent property of compound in chloroform as wavelength of excitation; assay type: physicochemical
[11] = Fluorescent property of compound in toluene assessed as wavelength of excitation; assay type: physicochemical
[12] = Fluorescent property of compound in DMSO assessed as wavelength of excitation; assay type: physicochemical
[13] = Fluorescent property of compound in toluene assessed as wavelength of emission; assay type: physicochemical
[14] = Fluorescent property of compound in DMSO assessed as wavelength of emission; assay type: physicochemical
[15] = Fluorescent property of compound in acetonitrile assessed as wavelength of excitation; assay type: physicochemical
[16] = Fluorescent property of compound in methanol assessed as wavelength of emission; assay type: physicochemical
[17] = Fluorescent property of compound in chloroform assessed as wavelength of emission; assay type: physicochemical
[18] = Drug uptake in rat PC12 cells at 20 uM incubated upto 2 hrs by HPLC analysis; assay type: ADME, cell-based; conditions: pc-12, 2 h
[19] = Drug uptake in cytoplasm of rat PC12 cells incubated for 24 hrs by fluorescence staining based microscopy; assay type: ADME, subcellular; conditions: pc12, 24 h
[20] = tested on: PC-12; assay: Neuritogenic activity in NGF-insensitive rat PC12 cells assessed as fold increase in induction of neural differentiation at 20 uM incubated for 96 hrs by microscopic analysis relative to control; assay type: functional

For N#Cc1sc2nc(N3CCOCC3)c3c(c2c1N)CCCC3, the Activity [1] was “inactive”.
In the case of N#Cc1sc2nc(N3CCCCC3)c3c(c2c1N)CCCC3, the Activity [1] is reported as “inactive”.
For CC(=O)Nc1c(C#N)sc2nc3c(cc12)CCCC3, the Activity [1] was “inactive”.
For N#Cc1sc2ncc3c(c2c1N)CCCC3, the Activity [1] was “Active”.
For N#Cc1sc2nc3c(cc2c1NC=O)CCCC3, the Activity [2] was “Active”, the Drug metabolism [3] was “Metabolite_Detected” and the Drug uptake [4] was “Active”. For the same molecule, the Drug uptake [5] was “Active”, the Drug metabolism [6] was “Metabolite_Detected” and the Activity [7] was “Dose-Dependent Effect”. For the same molecule, the Activity [1] was “Active”.
For NC(=O)c1sc2nc3c(cc2c1N)CCCC3, the Activity [1] was “inactive”.
With N#Cc1sc2nc3c(cc2c1N)CCC3 the Activity [1] was “Active”.
In the case of N#Cc1sc2nc3c(cc2c1N)CCCC3, the Activity [2] is reported as “Active”, the Activity [8] is reported as 356 nm and the Activity [9] is reported as 460 nm. It also gave an Activity [10] of 343 nm, an Activity [11] of 343 nm and an Activity [12] of 359 nm. For the same molecule, the Activity [13] was 434 nm, the Activity [14] was 478 nm and the Activity [7] was “Dose-Dependent Effect”. The Activity [15] was 345 nm, the Activity [1] was “Active” and the Activity [16] was 485 nm. For the same molecule, the Activity [17] was 453 nm, the Drug uptake [18] was “Active” and the Drug uptake [19] was “Active”. The “fold change (FC)” value [20] was 20.
For CC(=O)c1sc2nc3c(cc2c1N)CCCC3, the Activity [1] was “inactive”.
For N#Cc1sc2ncccc2c1N, the Activity [1] was “inactive”.
For CCOC(=O)c1sc2nc3c(cc2c1N)CCCC3, the Activity [1] was “inactive”.

Source: ChEMBL document CHEMBL5335816, “3-Amino-5,6,7,8-tetrahydrothieno[2,3-b]quinoline-2-carbonitrile: A fluorescent molecule that induces differentiation in PC12 cells” (Bioorg Med Chem, 2024)
